What all share (format): in vivo
The test system of test [1] is skeletal muscle atrophy. Nature of the test: animal models of skeletal muscle atrophy (summary of FIGS. 1-9). Conditions: theophylline administered alone in these atrophy models. As to the method: Theophylline was added to potentiate the duration and magnitude of action of the CRFR agonist therefore resulting in increased efficacy of these compounds. […] Statistical significance of the results was determined using ANCOVA (Douglas C. Montgomery, Design and Analysis of Experiments, John Wiley and Sons, New York (2nd ed. 1984)). Abbreviations used in FIGS. 1-9: g-gram; SEM-standard error of the mean.

In test [2] the test system is skeletal muscle atrophy. Nature of the test: Example 13: prophylactic treatment of skeletal muscle atrophy in comatose subject. Conditions: human 60 kg, slow i.v. infusion once each day, 5 ml of 12 mg/ml stock in 500 ml saline. As to the method:
A human subject weighing 60 kg is admitted to the hospital in a comatose state. The subject is treated by this method to prevent atrophy of the skeletal muscle of the entire body due to disuse in the comatose state. Specifically, once each day while in the coma, the subject is administered, via slow intravenous infusion, approximately 500 ml of an aqueous solution that is prepared by addition of 5 ml of the following stock solution to 500 ml of sterile saline: […]

In test [3] the test system is disuse-induced atrophy of skeletal muscle. Nature of the test: mouse leg casting disuse atrophy model. Particulars: male mice, 0.3 mg/kg s.c. twice daily + theophylline 30 mg/kg i.p., ten days. As for the experimental part: (§1) Legend: A—physiological saline (control); B—theophylline; C—sauvagine (0.03 mg/kg)+theophylline; D—sauvagine (0.1 mg/kg)+theophylline; E—sauvagine (0.3 mg/kg)+theophylline; *—p≦0.05 compared to saline. Following casting of the right hind leg, male mice were injected subcutaneously in the midscapular region twice daily, with sauvagine or vehicle control (physiological saline) for ten days at the daily delivered dose indicated. Sauvagine was co-administered with twice daily intra-peritoneal dosing of the phosphodiesterase inhibitor theophylline (30 mg/kg). On day ten, the medial gastrocnemius and tibialis anterior muscles were removed and weighed to determine the degree of atrophy.
as §1, with “B—urocortin” for “B—theophylline; C—sauvagine (0.03 mg/kg)+theophylline; D—sauvagine (0.1 mg/kg)+theophylline; E—sauvagine”, “urocortin” for “sauvagine”, “days. Urocortin was administered” for “days”, “doses indicated in the description of FIGS. 6A and 6B. Urocortin” for “daily delivered dose indicated. Sauvagine”
Legend: A—non casted muscle control; B—casted muscle, saline control; C—casted muscle, sauvagine (0.3 mg/kg)+theophylline (30 mg/kg); *—p≦0.05 compared to saline. Following casting of the right hind leg, male mice were injected subcutaneously in the midscapular region twice daily, with either sauvagine or vehicle control (physiological saline) for ten days at the doses indicated above. Sauvagine was co-administered 30 mg/kg theophylline. On day ten, the EDL and soleus muscles were removed and absolute force and mass measurements taken to determine the degree of atrophy.
The leg casting disuse atrophy model involves casting one hind leg of an animal from the knee down through the foot. Typically, muscle mass is reduced 20-40% after ten days of casting. Following casting, test compounds are administered by injection or by continuous infusion via implantation of an osmotic minipump (e.g., Alzet, Palo Alto, Calif.) to determine their effect on leg casting induced skeletal muscle atrophy. At various times following leg casting, the extent of atrophy in the affected muscles is analyzed as described above for the denervation model.
The extensor digitorum longus (EDL) and soleus muscles are removed, tendon-to-tendon from the casted mouse leg. A silk suture is tied to each tendon of the isolated muscles and the muscles are placed into a plexiglass chamber filled with Ringer solution (137 mM sodium chloride, 24 mM sodium bicarbonate, 11 mM glucose, 5 mM potassium chloride, 1 mM magnesium sulfate, 1 mM sodium phosphate, 0.025 mM tubocurarine, all at pH 7.4 and oxygenated with 95% oxygen/5% carbon dioxide) constantly bubbled with 95% oxygen/5% carbon dioxide maintained at 25° C. Muscles are aligned horizontally between a servomotor lever arm (Model 305B-LR Cambridge Technology Inc., Watertown Mass., USA) and the stainless steel hook of a force transducer (Model BG-50; Kulite Semiconductor Products Inc., Leonia, N.J., USA) and field stimulated by pulses transmitted between two platinum electrodes placed longitudinally on either side of the muscle. Square wave pulses (0.2 ms duration) generated by a personal computer with a Labview board (Model PCI-MIO 16E-4), Labview Inc., Austin, Tex., USA) are amplified (Acurus power amplifier model A25, Dobbs Ferry, N.Y., USA) to increase titanic contraction. Stimulation voltage and muscle length (Lo) are adjusted to obtain maximum isometric twitch force. Maximum titanic force production (Po) is determined from the plateau of the frequency-force relationship.

The subject of test [4] is denervation-induced atrophy of skeletal muscle. Nature of the test: mouse sciatic nerve denervation atrophy model. Particulars: FIG. 5, day nine. As to the method: Legend: A—physiological saline (control); B—sauvagine (0.01 mg/kg)+theophylline; C—sauvagine (0.03 mg/kg)+theophylline; D—sauvagine (0.1 mg/kg)+theophylline; E—sauvagine (1.0 mg/kg)+theophylline; *—p≦0.05 compared to saline. Following denervation of the right sciatic nerve, male mice were injected subcutaneously in the midscapular region twice daily with sauvagine, at the doses indicated above or vehicle control (physiological saline) for nine days. Sauvagine was co-administered with 30 mg/kg theophylline. On day nine, the medial gastrocnemius muscle was removed and weighed to determine the degree of atrophy.
Legend: A—water (control); B—sauvagine (0.1 mg/kg/d); C—sauvagine (0.3 mg/kg/d); D—sauvagine (1.0 mg/kg/d); *—p≦0.05 compared to water. Following denervation of the right sciatic nerve, male mice were dosed with either sauvagine or vehicle control (physiological saline) by continuous infusion using an Alzet osmotic minipump at 5 μl/hr until the end of the experimental period (without additional theophylline). The daily delivered dose of sauvagine is indicated above. Minipump implantation was performed at the time of sciatic nerve denervation. On day nine the tibialis anterior muscle was removed and weighed to determine the degree of atrophy.
Legend: A—water (control); B—sauvagine (1 mg/kg/d); C—urocortin (1.0 mg/kg/d); *—p≦0.05 compared to water. Following denervation of the right sciatic nerve, male mice were dosed with the above indicated agents or vehicle control (physiological saline) by continuous infusion using an Alzet osmotic minipump at 5 μl/hr until the end of the experimental period (without additional theophylline). The daily delivered dose of the agents is indicated above. Minipump implantation was performed at the same time as the sciatic nerve denervation. On day nine the tibialis anterior muscle was removed and weighed to determine the degree of atrophy.
Legend: A-C—wild-type mice; D-F—CRF2R knockout mice. A and D—water (control); B and E—sauvagine (0.3 mg/kg/d); C and F—sauvagine (1.0 mg/kg/d); *—p≦0.05 compared to saline. Following denervation of the right sciatic nerve, female wild-type and CRF2R knockout mice were dosed with sauvagine or vehicle control by continuous infusion using an Alzet osmotic minipump at 5 μl/hr for nine days at the daily delivered dose indicated above. On day nine, the tibialis anterior muscle was removed and weighed to determine the degree of atrophy.
The sciatic nerve denervation atrophy model involves anesthetizing the animal followed by the surgical removal of a short segment of either the right or left sciatic nerve, e.g., in mice the sciatic nerve is isolated approximately at the midpoint along the femur and a 3-5 mm segment is removed. This denervates the lower hind limb musculature resulting in atrophy of these muscles. Typically, innervation to the biceps femoris is left intact to provide satisfactory motion of the knee for virtually normal ambulation. Typically, in untreated animals, muscle mass of the denervated muscles is reduced 30-50% ten days following denervation. Following denervation, test compounds are administered e.g., by injection or by continuous infusion, e.g., via implantation of an osmotic minipump (e.g., Alzet, Palo Alto, Calif.), to determine their effect on denervation induced skeletal muscle atrophy. At various times following denervation, the animals are euthanized and lower leg muscles are dissected rapidly from both the denervated and nondenervated legs, the muscles, cleaned of tendons and connective tissue, are weighed. The extent of atrophy in the affected muscles is analyzed, for example, by measuring muscle mass, muscle cross-sectional area, myofiber cross-sectional area or contractile protein content.

Ends that are not written are not given here.

These results are taken from patent publication US7572768B2, “Methods for identifying compounds for regulating muscle mass or function using corticotropin releasing factor receptors” (priority 2001, dated 2009).

With `Cn1c(=O)c2[nH]cnc2n(C)c1=O` [Theophylline, theophylline], the “effect on skeletal muscle atrophy” value in test [1] was “had no effect”.

In the case of “Urocortin-II (VILSLDVPIGLLRILLEQARYKAARNQAATNAQILAHV; listed as Mus musculus) [CRF analog]”, in test [2], the “skeletal muscle mass and function” value is “measurable preservation of skeletal muscle mass and function”.

As to “urocortin (DNPSLSIDLTFHLLRTLLELARTQSQRERAEQNRIIFDSV; ends and bridges not checked; UniProt P55089 83-122, looked up) [mammalian congener of urotensin, CRFR agonist (Bachem Biosciences, Inc.)]”, the “disuse-induced atrophy of the tibialis anterior muscle (muscle weight)” value in test [3] (FIG. 6A) was “inhibits disuse-induced atrophy”. In test [3] (FIG. 6B), the “disuse-induced atrophy of the medial gastrocnemius muscle (muscle weight)” value is reported as “inhibits disuse-induced atrophy”. Besides, in test [4] (1.0 mg/kg/d by osmotic minipump), the “hypertrophy of the non-denervated leg (tibialis anterior muscle)” value is on record as “hypertrophy of the non-denervated leg was observed”. Further, the “denervation-induced atrophy of the tibialis anterior muscle (muscle weight)” value in test [4] (male mice, 1 mg/kg/d continuous infusion by osmotic minipump, no theophylline) is “inhibit denervation-induced atrophy”.
